Measurements as given in patent US7582631B2, “Substituted heterocyclic compounds and methods of use” (Amgen Inc., priority 2004, dated 2009).

Tests used:
whole human blood = experiment: Anti-CD3/anti-CD28-induced IL-2 Secretion in Whole Human Blood; format: cell-based; conditions: 48 h, IL-2 by ELISA, threshold 5 μM
Experimental: Anti-CD3/anti-CD28-induced IL-2Secretion in Whole Human Blood
The purpose of this assay is to test the potency of T cell receptor (TCR; CD3) and CD28 signaling pathway inhibitors in whole human blood. Anti-CD3 antibody (10 ug/mL; R&D Systems) is precoated on the wells of 96-well plates. Compounds are added in T-cell dilution media (Iscoves modified DMEM), supplemented with 0.1% human serum albumin, 5 uM Beta-mercaptoethanol, and 1×Pen/Strep/Glu. Compounds are tested in triplicate. 100 μL of whole human blood (collected in heparinized tubes) is added to each well and the plates are incubated for 30 minutes at 37° C., 5% CO2. Anti-CD28 antibody (2 ug/mL; R&D Systems) is diluted in T-cell dilution media and is added to the wells. The mixture is incubated for 48 h at 37° C., 5% CO2. The cells are then pelleted, and the supernatant collected and IL-2 production determined by ELISA (R&D Systems).

human T cells = experiment: Anti-CD3/anti-CD28-induced T cell IL-2 Secretion and Proliferation Assay; format: cell-based; conditions: list printed after the T cell IL-2 secretion/proliferation method, threshold 500 μM

| SMILES | IC50 (whole human blood) | IC50 (human T cells) |
| --- | --- | --- |
| CCN1CC2CC1CN2c1nc(-c2ccnc(N[C@@H](C)c3ccccc3)c2)nc2ccccc12 (stereo partly drawn) [(S)-{4-[4-(5-Ethyl-(1S,4S)-2,5-diaza-bicyclo[2.2.1]hept-2-yl)-quinazolin-2-yl]-pyridin-2-yl}-(1-phenyl-ethyl)-amine] | < 5 µM | – |
| CC(C)N1CC2CC1CN2c1nc(-c2ccnc(N[C@@H](C)c3ccccc3)c2)nc2ccccc12 (stereo partly drawn) [(S)-{4-[4-(5-Isopropyl-(1S,4S)-2,5-diaza-bicyclo[2.2.1]hept-2-yl)-quinazolin-2-yl]-pyridin-2-yl}-(1-phenyl-ethyl)-amine] | – | < 500 µM |
| C[C@H](Nc1cc(-c2nc(N3CC4CC3CN4C)c3ccccc3n2)ccn1)c1ccccc1 (stereo partly drawn) [(S)-{4-[4-(5-Methyl-(1S,4S)-2,5-diaza-bicyclo[2.2.1]hept-2-yl)-quinazolin-2-yl]-pyridin-2-yl}-(1-phenyl-ethyl)-amine] | – | < 500 µM |
| Fc1ccc2c(N3CC4CC3CN4)nn(-c3ccnc(NCc4ccccc4)c3)c2c1 [Benzyl-{4-[3-((1S,4S)-2,5-diaza-bicyclo[2.2.1]hept-2-yl)-6-fluoro-indazol-1-yl]-pyridin-2-yl}-amine] | < 5 µM | < 500 µM |
| C[C@H](Nc1cc(-c2cc3nccn3c(N3C[C@@H]4C[C@H]3CN4)n2)ccn1)c1ccccc1 [Example 3, (S)-{4-[5-((1S,4S)-2,5-Diaza-bicyclo[2.2.1]hept-2-yl)-imidazo[1,2-c]pyrimidin-7-yl]-pyridin-2-yl}-(1-phenyl-ethyl)-amine] | < 5 µM | – |
| CC(C)N1C[C@@H]2C[C@H]1CN2c1nc(-c2ccnc(N[C@@H](C)c3ccccc3)c2)cc2nccn12 [Example 4, (S)-{4-[5-(5-Isopropyl-(1S,4S)-2,5-diaza-bicyclo[2.2.1]hept-2-yl)-imidazo[1,2-c]pyrimidin-7-yl]-pyridin-2-yl}-(1-phenyl-ethyl)-amine] | < 5 µM | < 500 µM |
| CCN1C[C@@H]2C[C@H]1CN2c1nc(-c2ccnc(N[C@@H](C)c3ccccc3)c2)cc2nccn12 [Example 5, (S)-{4-[5-(5-Ethyl-(1S,4S)-2,5-diaza-bicyclo[2.2.1]hept-2-yl)-imidazo[1,2-c]pyrimidin-7-yl]-pyridin-2-yl}-(1-phenyl-ethyl)-amine] | < 5 µM | – |
| C[C@H](Nc1cc(-n2nc(N3C[C@@H]4C[C@H]3CN4)c3ccccc32)ccn1)c1ccccc1F [Example 24, (S)-{4-[3-((1S,4S)-2,5-Diaza-bicyclo[2.2.1]hept-2-yl)-indazol-1-yl]-pyridin-2-yl}-[1-(2-fluoro-phenyl)-ethyl]-amine] | < 5 µM | – |
| C[C@H](Nc1cc(-n2nc(N3C[C@@H]4C[C@H]3CN4)c3ccccc32)ccn1)c1ccccc1 [Example 43, (S)-{4-[3-((1s, 4S)-2,5-Diaza-bicyclo[2.2.1]hept-2-yl)-indazol-1-yl]-pyridin-2-yl}-(1-phenyl-ethyl)-amine] | – | < 500 µM |
| CC(C)N1C[C@@H]2C[C@H]1CN2c1nn(-c2ccnc(N[C@@H](C)c3ccccc3)c2)c2ccccc12 [Example 44, (S)-{4-[3-(5-Isopropyl-(1S,4S)-2,5-diaza-bicyclo[2.2.1]hept-2-yl)-indazol-1-yl]-pyridin-2-yl}-(1-phenyl-ethyl)-amine] | < 5 µM | < 500 µM |
| C[C@H](Nc1cc(-c2nc(N3C[C@@H]4C[C@H]3CN4)c3ccccc3n2)ccn1)c1ccccc1 [Example 49, {4-[4-((1S,4S)-2,5-Diaza-bicyclo[2.2.1]hept-2-yl)-quinazolin-2-yl]-pyridin-2-yl}-(S)-(1-phenyl-ethyl)-amine] | < 5 µM | < 500 µM |
| C[C@H](Nc1cc(-c2cc(N3C[C@@H]4C[C@H]3CN4)c3ccccc3n2)ccn1)c1ccccc1 [Example 51, (S)-{4-[4-((1S,4S)-2,5-Diaza-bicyclo[2.2.1]hept-2-yl)-quinolin-2-yl]-pyridin-2-yl}-(1-phenyl-ethyl)-amine] | – | < 500 µM |
| CC(C)N1C[C@@H]2C[C@H]1CN2c1cc(-c2ccnc(N[C@@H](C)c3ccccc3)c2)nc2ccccc12 [Example 52, (S)-{4-[4-(5-Isopropyl-(1S,4S)-2,5-diaza-bicyclo[2.2.1]hept-2-yl)-quinolin-2-yl]-pyridin-2-yl}-(1-phenyl-ethyl)-amine] | < 5 µM | < 500 µM |
| Fc1ccccc1CNc1cc(-c2cc3nccn3c(N3C[C@@H]4C[C@H]3CN4)n2)ccn1 [Example 57, {4-[5-((1S,4S)-2,5-Diaza-bicyclo[2.2.1]hept-2-yl)-imidazo[1,2-c]pyrimidin-7-yl]-pyridin-2-yl}-(2-fluoro-benzyl)-amine] | < 5 µM | < 500 µM |
| CCN1C[C@@H]2C[C@H]1CN2c1nc(-c2ccnc(N[C@@H](C)c3ccccc3)c2)nc2ccccc12 [Example 64, (S)-{4-[4-(5-Ethyl-(1S,4S)-2,5-diaza-bicyclo[2.2.1]hept-2-yl)-quinazolin-2-yl]-pyridin-2-yl}-(1-phenyl-ethyl)-amine] | – | < 500 µM |
| CC(C)N1C[C@@H]2C[C@H]1CN2c1nc(-c2ccnc(N[C@@H](C)c3ccccc3)c2)nc2ccccc12 [Example 65, (S)-{4-[4-(5-Isopropyl-(1S,4S)-2,5-diaza-bicyclo[2.2.1]hept-2-yl)-quinazolin-2-yl]-pyridin-2-yl}-(1-phenyl-ethyl)-amine] | < 5 µM | – |
| CC(C)N1C[C@@H]2C[C@H]1CN2c1nccc(-c2ccnc(N[C@@H](C)c3ccccc3)c2)n1 [Example 66, (S)-{4-[2-(5-Isopropyl-(1S,4S)-2,5-diaza-bicyclo[2.2.1]hept-2-yl)-pyrimidin-4-yl]-pyridin-2-yl}-(1-phenyl-ethyl)-amine] | < 5 µM | – |
| c1ccc(CNc2cc(-n3nc(N4C[C@@H]5C[C@H]4CN5)c4ccccc43)ccn2)cc1 [Example 69] | < 5 µM | < 500 µM |
